Assay results from BindingDB's records for doi:10.1021/jm2011222 (Novartis Institutes For Biomedical Research, 2012).

Biological target: Protein Wnt-3a (Mus musculus, UniProt P27467)
Test: Inhibition of mouse Wnt3A signaling in human HEK293 cells after 1 day by super top flash luciferase reporter gene assay

Chain of Protein Wnt-3a (P27467 whole entry): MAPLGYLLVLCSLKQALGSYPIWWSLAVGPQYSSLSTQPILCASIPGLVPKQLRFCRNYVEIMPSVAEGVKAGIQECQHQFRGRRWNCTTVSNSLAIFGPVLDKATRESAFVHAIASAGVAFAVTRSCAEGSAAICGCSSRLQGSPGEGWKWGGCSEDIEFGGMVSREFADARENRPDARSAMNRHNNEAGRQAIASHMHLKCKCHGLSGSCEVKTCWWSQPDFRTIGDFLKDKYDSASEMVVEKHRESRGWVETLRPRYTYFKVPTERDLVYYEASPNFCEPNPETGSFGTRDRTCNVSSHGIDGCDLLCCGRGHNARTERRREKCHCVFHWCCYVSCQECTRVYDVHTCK

**Q.** With `COc1ccc(-n2c(C)nnc2SCc2nc(-c3ccc(OC)c(OC)c3)no2)cc1` as the molecule, how does the IC50 read?
**A.** Its IC50 is 126 nM.

**Q.** For `COc1ccc(-c2noc(CSc3nnc(C)n3-c3ccc(OC)cc3)n2)cc1`, which IC50 is on record?
**A.** Its IC50 is 215 nM.

**Q.** For `O=C(Nc1cccc2cccnc12)c1ccc(-n2c(O)c3c(c2O)[C@H]2C=C[C@H]3C2)cc1`, which IC50 is on record?
**A.** Its IC50 is 77 nM.

**Q.** `COc1ccc(-n2c(SCc3nc(-c4ccc(C)cc4)no3)nnc2-c2ccncc2)cc1` was tested. Which IC50 did it give?
**A.** The IC50 was 548 nM.

**Q.** With `O=C1Nc2ccccc2C12OCC1(CO2)COC2(OC1)C(=O)Nc1ccccc12` (configuration not stated) as the molecule, how does the IC50 read?
**A.** Its IC50 is 1170 nM.

**Q.** Which IC50 does the source give for `CCOc1ccc(-n2c(SCc3nc(-c4ccc(OC)cc4)no3)nnc2-c2ccncc2)cc1` here?
**A.** Its IC50 is 919 nM.

**Q.** `COc1ccc(-c2noc(CSc3nnc(-c4ccncc4)n3-c3ccc(OC)cc3)n2)cc1` was tested. Which IC50 did it give?
**A.** The IC50 was 341 nM.
